Key:
[1] = system: penicillinase-producing strain of Escherichia coli without associated resistance (EcR1); assay: MIC of the compounds used alone, microdilution in a liquid medium (CLSI); type: cell-based; details: antibiotic alone (second value of cell)
Text: (§1) The MICs of the antibiotics were previously defined for each strain, by the method of microdilution in a liquid medium (CLSI (Clinical and Laboratory Standards Institute), 2003).

[2] = system: Escherichia coli strain ATCC 25922 (wild type); assay: as above; type: cell-based; details: antibiotic alone (second value of cell); E. coli ATCC 25922
Text: as §1

[3] = system: Staphylococcus aureus strain ATCC 29213 (wild type); assay: as above; type: cell-based; details: antibiotic alone (second value of cell); S. aureus ATCC 29213
Text: as §1

[4] = system: ESBL-producing strain of Escherichia coli, having an associated resistance to the aminoglycosides (EcR3); assay: as above; type: cell-based; details: antibiotic alone (second value of cell)
Text: as §1

[5] = system: cephalosporinase-hyperproducing strain of Escherichia coli (EcR2); assay: as above; type: cell-based; details: antibiotic alone (second value of cell)
Text: as §1

[6] = system: EcR1: Penicillinase-Producing Escherichia coli without Associated Resistance; assay: Antibiogram by the disk diffusion technique; type: cell-based; details: Table A1
Protocol: (§2) 5.1 EcR1: Penicillinase-Producing Escherichia coli without Associated Resistance The bacterial and antibiogramidentification is carried out by the VITEK 2 system (bioMérieux) and by the disk diffusion technique.

[7] = system: EcR1: Penicillinase-Producing Escherichia coli without Associated Resistance; assay: Antibiogram, MIC by the VITEK 2 system; type: cell-based
Protocol: as §2

[8] = system: EcR3: ESBL-Producing Escherichia coli; assay: Antibiogram by the disk diffusion technique; type: cell-based
Protocol: The bacterial and antibiogramidentification is carried out by the VITEK 2 system (bioMerieux) and by the disk diffusion technique

[9] = system: PaR3: Pseudomonas aeruginosa; assay: Antibiogram, MIC by the VITEK 2 system; type: cell-based
Protocol: (§3) The bacterial and antibiogramidentification is carried out by the VITEK 2 system (bioMérieux)

[10] = system: SaR1: Meticillin-Resistant Staphylococcus aureus without Associated Resistance; assay: Antibiogram, MIC by the VITEK 2 system; type: cell-based; details: SaR1
Protocol: as §3

[11] = system: EcR2: Cephalosporinase-Hyperproducing Strain of Escherichia coli; assay: Antibiogram by the disk diffusion technique; type: cell-based
Protocol: The bacterial and antibiogramidentification is carried out by the VITEK 1 system (bioMérieux) and by the disk diffusion technique

[12] = system: SaR4: Meticillin-Resistant Staphylococcus aureus; assay: Antibiogram by the disk diffusion technique; type: cell-based
Protocol: (§4) The bacterial and antibiogramidentification is carried out by the VITEK 2 system (bioMérieux) and by the disk diffusion technique

[13] = system: PaR5: Pseudomonas aeruginosa; assay: Antibiogram by the disk diffusion technique; type: cell-based
Protocol: as §4

[14] = system: SaR3: Meticillin-Resistant Staphylococcus aureus; assay: Antibiogram by the disk diffusion technique; type: cell-based
Protocol: as §4

[15] = system: PaR2: Pseudomonas aeruginosa; type: cell-based
Protocol: as §4

[16] = system: MRSA strain having a resistance to the aminoglycosides and fluoroquinolones (SaR3); assay: MIC of the compounds used alone, microdilution in a liquid medium (CLSI); type: cell-based, Staphylococcus aureus; details: antibiotic alone (second value of cell); SaR3
Text: as §1

[17] = system: MRSA strain having a resistance to the aminoglycosides, fluoroquinolones, macrolides-lincosamides-synergistins and ofloxacin (SaR4); assay: as above; type: cell-based, Staphylococcus aureus; details: antibiotic alone (second value of cell); SaR4
Text: as §1

[18] = system: MRSA strain without associated resistance (SaR1); assay: as above; type: cell-based, Staphylococcus aureus; details: antibiotic alone (second value of cell); SaR1
Text: as §1

[19] = system: SaR1: Meticillin-Resistant Staphylococcus aureus without Associated Resistance; assay: Antibiogram, inhibition diameter (Table D1); type: cell-based
Protocol: as §3

[20] = system: Escherichia coli, Staphylococcus aureus and Pseudomonas aeruginosa strains; assay: Chessboard technique, summary statements over all strains and combinations tested; type: cell-based; details: strain not stated
How it was run: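 Checkerboard of 64 antibiotic/Cx1 concentration combinations per strain. FIC index classed as synergy (≤0.5), additive (>0.5–1), indifferent (>1–4) or antagonism (>4). Each strain and combination tested at least 3 times.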

## Gentamicin
[1]
  Initial MICs: 0.125 mg/L
[2]
  Initial MICs: 0.125 mg/L
[3]
  Initial MICs: 0.25 mg/L
[4]
  Initial MICs (mg/L): 2/2 mg/L
[5]
  Initial MICs (mg/L): 2/2 mg/L
[6]; EcR1, disk diffusion
  Diameter: 20 mm
[6]; EcR1, interpretation of the diameter against Dmin Dmax
  Results: Susceptible
[7]; EcR1, MIC against Cc CA-SFM 2011
  CA-SFM Interpretation: Susceptible
[7]; EcR1, MIC against Cc CLSI 2011
  CLSI Interpretation: Susceptible
[7]; EcR1, MIC against Cc EUCAST 2011
  EUCAST Interpretation: Susceptible
[7]; EcR1, Table A2
  MIC mg/L (diameter in mm): ≦1 mg/L
[7]; EcR1, VITEK 2, Table A1
  MIC mg/L: ≦1 mg/L
[7]; EcR1, interpretation of the MIC, Table A1
  Results: Susceptible
[8]; Cd CA-SFM 2011
  CA-SFM Interpretation: Resistant
[8]; Cd CLSI 2011
  CLSI Interpretation: Intermediate
[8]; Cd EUCAST 2011
  EUCAST Interpretation: Resistant
[8]; Table C1
  Diameter: 12 mm
[8]; Table C1, against Dmin Dmax
  Results: Resistant
[8]; Table C2
  diameter in mm: 12 mm
[9]; Cc CA-SFM 2011
  CA-SFM Interpretation: Resistant
[9]; Cc CLSI 2011
  CLSI Interpretation: Resistant
[9]; Cc EUCAST 2011
  EUCAST Interpretation: Resistant
[9]; Table H1
  MIC: ≧16
  Results: Resistant
[9]; Table H2
  MIC mg/L: ≧16 mg/L
[10]; Cc CA-SFM 2011
  CA-SFM Interpretation: Susceptible
[10]; Cc CLSI 2011
  CLSI Interpretation: Susceptible
[10]; Cc EUCAST 2011
  EUCAST Interpretation: Susceptible
[10]; Table D1
  MIC mg/L: ≦0.5 mg/L
[10]; Table D1, from MIC
  Results: Susceptible
[10]; Table D2
  MIC mg/L: ≦0.5 mg/L
[11]; EcR2, disk diffusion, Table B1
  Diameter: 12
[11]; EcR2, rows that print a diameter, Table B1
  Results: Resistant
[11]; EcR2, Table B2, diameters
  Diameter: 12 mm
[11]; EcR2, from diameter, CA-SFM 2011
  CA-SFM Interpretation: Resistant
[11]; EcR2, from diameter, CLSI 2011
  CLSI Interpretation: Resistant
[11]; EcR2, from diameter, EUCAST 2011
  EUCAST Interpretation: Resistant
[12]; Table F1
  Diameter: 21
[12]; Table F1, rows with a diameter
  Results: Susceptible
[12]; Table F2, diameters
  Diameter: 21 mm
[12]; from diameter, CA-SFM 2011
  CA-SFM Interpretation: Susceptible
[12]; from diameter, CLSI 2011
  CLSI Interpretation: Susceptible
[12]; from diameter, EUCAST 2011
  EUCAST Interpretation: Susceptible
[13]; PaR5, Table I1
  Diameter: 25 mm
[13]; PaR5, Table I1, against Dmin-Dmax
  Results: Susceptible
[13]; disk diffusion inhibition diameter, strain PaR5
  diameter in mm: 25 mm
[13]; disk diffusion, PaR5, versus critical diameter CA-SFM 2011
  CA-SFM Interpretation: Susceptible
[13]; disk diffusion, PaR5, versus critical diameter CLSI 2011
  CLSI Interpretation: Susceptible
[13]; disk diffusion, PaR5, versus critical diameter EUCAST 2011, for ** antibiotics the disk load differs and the EUCAST interpretation is not applicable
  EUCAST Interpretation: Susceptible
[14]; Cd CA-SFM 2011
  CA-SFM Interpretation: Susceptible
[14]; Cd CLSI 2011
  CLSI Interpretation: Susceptible
[14]; Cd EUCAST 2011
  EUCAST Interpretation: Susceptible
[14]; Table E1
  Diameter: 20 mm
[14]; Table E1, against Dmin Dmax
  Results: Susceptible
[14]; Table E2
  diameter in mm: 20 mm
[15]; Cd CA-SFM 2011
  CA-SFM Interpretation: Susceptible
[15]; Cd CLSI 2011
  CLSI Interpretation: Susceptible
[15]; Cd EUCAST 2011
  EUCAST Interpretation: Susceptible
[15]; Table G1
  Diameter: 21 mm
[15]; Table G1, against Dmin-Dmax
  Results: Susceptible
[15]; Table G2
  diameter in mm: 21 mm
[16]
  MIC: 0.125 µg/mL
[17]
  MIC: 0.25 µg/mL
[18]
  MIC: 0.25 µg/mL
[19]
  Diameter: 23 mm
[19]; from diameter, against Dmin Dmax
  Results: Susceptible
[20]
  interaction between the antibiotic and Cx1: synergism

From patent US20140066365A1, “USE OF CALIXARENES ASSOCIATED WITH AN ANTIBIOTIC IN THE TREATMENT OF BACTERIAL INFECTIONS” (priority 2011, published 2014)
